The text below walks through data of the RepoRT retention time repository.

This series can be described thus: HILIC, HILICON iHILIC-(P) Classic, HILIC, PEEK, 100 × 2.1 mm, 5 µm, 40 °C, 0.12 mL/min, estimated dead time 1.8 min; A: water + 20 mM ammonium carbonate + 5 µM medronic acid; B: 10% water + 90% acetonitrile + 2 mM ammonium carbonate + 0.5 µM medronic acid; gradient (min/%B) 0/95 18/55 19/20 22/20 22.5/95 24/95 26/95. The following applies: stereoisomer not certain.
With `NC(=O)CCC(N)C(=O)O` (stereo not drawn) [Glutamine], the LC retention time is 9.95 min.

`NC(=O)CC(N)C(=O)O` (stereo not drawn) [Asparagine]: the LC retention time was 9.93 min.

On to `O=C(O)CC(C(=O)O)C(O)C(=O)O` (stereo not drawn) [Isocitric acid], for which the LC retention time is 15.7 min.

Regarding `O=C(CO)C(O)C(O)C(O)COP(=O)(O)O` (stereo not drawn) [Fructose 6-phosphate], the LC retention time was 12.5 min.

For `Nc1ncnc2c1ncn2C1OC(CO)C(O)C1O` (stereo not drawn) [Adenosine], the LC retention time was 4.33 min.

For the compound `O=C(O)CCC(=O)C(=O)O` [2-Oxoglutaric acid], the LC retention time is 12.7 min.

`Nc1ncnc2c1ncn2C1OC(COP(=O)(O)OP(=O)(O)O)C(O)C1O` (stereo not drawn) [ADP]: the LC retention time is 12.2 min.

Consider `C=C(OP(=O)(O)O)C(=O)O` [PEP], for which the LC retention time is 14.5 min.

`NC(N)=NCCCC(N)C(=O)O` (stereo not drawn) [Arginine]: the LC retention time is 18.9 min.

For the compound `O=C(CO)COP(=O)(O)O` [Triose phosphate], the LC retention time is 11.3 min.

`NC(CCC(=O)NC(CS)C(=O)NCC(=O)O)C(=O)O` (stereo not drawn) [GSH]: the LC retention time is 9.93 min.

For `O=C(O)CC(O)(CC(=O)O)C(=O)O` [Citric acid], the LC retention time is 15 min.

Take `O=P(O)(O)OCC(O)CO` (stereo not drawn) [Glycerol-3-phosphate]: the LC retention time was 11 min.

Take `O=P(O)(O)OCC1OC(O)C(O)C(O)C1O` (stereo not drawn) [Glucose-6-phosphate]: the LC retention time was 13.5 min.

Take `O=P(O)(O)OCC1OC(O)C(O)C1O` (stereo not drawn) [Pentose-phosphate]: the LC retention time was 11.3 min.

With `NC(=O)C1=CN(C2OC(COP(=O)(O)OP(=O)(O)OCC3OC(n4cnc5c(N)ncnc54)C(O)C3O)C(O)C2O)C=CC1` (stereo not drawn) [NADH], the LC retention time was 9.3 min.

Take `CC(C)(COP(=O)(O)OP(=O)(O)OCC1OC(n2cnc3c(N)ncnc32)C(O)C1OP(=O)(O)O)C(O)C(=O)NCCC(=O)NCCS` (stereo not drawn) [CoenzymeA]: the LC retention time was 11.4 min.

Consider `CC(=O)SCCNC(=O)CCNC(=O)C(O)C(C)(C)COP(=O)(O)OP(=O)(O)OCC1OC(n2cnc3c(N)ncnc32)C(O)C1OP(=O)(O)O` (stereo not drawn) [Acetyl-CoA], for which the LC retention time was 10 min.

Regarding `NC(CCC(=O)NC(CSSCC(NC(=O)CCC(N)C(=O)O)C(=O)NCC(=O)O)C(=O)NCC(=O)O)C(=O)O` (stereo not drawn) [GSSG], the LC retention time was 14.8 min.

Take `Nc1ncnc2c1ncn2C1OC(COP(=O)(O)OP(=O)(O)OP(=O)(O)O)C(O)C1O` (stereo not drawn) [ATP]: the LC retention time is 13.7 min.

In the case of `O=C(O)CCC(=O)O` [Succinic Acid], the LC retention time was 10.9 min.

As for `O=C(O)C=CC(=O)O` [Fumaric Acid], the LC retention time was 12 min.

In the case of `NC(=O)c1ccc[n+](C2OC(COP(=O)(O)OP(=O)(O)OCC3OC(n4cnc5c(N)ncnc54)C(O)C3O)C(O)C2O)c1` (stereo not drawn) [NAD], the LC retention time is 10.4 min.

As for `NC(CCC(=O)O)C(=O)O` (stereo not drawn) [Glutamic acid], the LC retention time was 9.95 min.

`CC(=O)NC1C(OP(=O)(O)OP(=O)(O)OCC2OC(n3ccc(=O)[nH]c3=O)C(O)C2O)OC(CO)C(O)C1O` (stereo not drawn) [UDP-GlcNAc]: the LC retention time is 11.7 min.

As to `O=C(O)CC(O)C(=O)O` (stereo not drawn) [Malic Acid], the LC retention time is 11.9 min.

For `Nc1ncnc2c1ncn2C1OC(COP(=O)(O)O)C(O)C1O` (stereo not drawn) [AMP], the LC retention time is 9.81 min.

With `NCCCCC(N)C(=O)O` (stereo not drawn) [Lysine], the LC retention time is 18.5 min.

Turning to `NC(=O)c1ccc[n+](C2OC(COP(=O)(O)OP(=O)(O)OCC3OC(n4cnc5c(N)ncnc54)C(OP(=O)(O)O)C3O)C(O)C2O)c1` (stereo not drawn) [NADP], the LC retention time is 14.3 min.

Consider `O=P(O)(O)OC1OC(CO)C(O)C(O)C1O` (stereo not drawn) [Glucose-1-phosphate], for which the LC retention time is 12.5 min.

As for `O=P(O)(O)OCC1OC(O)(COP(=O)(O)O)C(O)C1O` (stereo not drawn) [Fructose-1,6-bisphosphate], the LC retention time was 15.9 min.

In the case of `NC(=O)C1=CN(C2OC(COP(=O)(O)OP(=O)(O)OCC3OC(n4cnc5c(N)ncnc54)C(OP(=O)(O)O)C3O)C(O)C2O)C=CC1` (stereo not drawn) [NADPH], the LC retention time was 15.5 min.

Consider `CC(O)C(=O)O` (stereo not drawn) [Lactic Acid], for which the LC retention time was 3.31 min.
